Key:
velvetleaf [1] = assay: Test C preemergence/postemergence greenhouse plant response rating 0 to 100; type: in vivo, Abutilon theophrasti
Summary of the method: (§1)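 Compounds in non-phytotoxic solvent went onto sandy loam before emergence (seeded one day earlier) or onto plants at the one-to-four leaf stage. Duck salad was treated via flood water (~2.5 cm, maintained) over silt loam.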

sugar beet = assay: Test B preemergence/postemergence greenhouse plant response rating 0 to 10; type: in vivo, Beta vulgaris; settings: 0 to 10 scale
Summary of the method: (§2)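 Postemergence treatment of plants two to eighteen cm tall ran alongside preemergence treatment of planted seed, each using compound in a non-phytotoxic solvent.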

chickweed = assay: as above; type: in vivo, Stellaria media; settings: 0 to 10 scale
Summary of the method: as §2

lambsquarters = assay: Test C preemergence/postemergence greenhouse plant response rating 0 to 100; type: in vivo, Chenopodium album; settings: POSTEMERGENCE
Summary of the method: as §1

velvetleaf [2] = assay: Test B preemergence/postemergence greenhouse plant response rating 0 to 10; type: in vivo, Abutilon theophrasti; settings: 0 to 10 scale
Summary of the method: as §2

corn [3] = assay: as above; type: in vivo, Zea mays; settings: 0 to 10 scale
Summary of the method: as §2

morningglory [4] = assay: Test C preemergence/postemergence greenhouse plant response rating 0 to 100; type: in vivo, Ipomoea hederacea; settings: for Plant response rating, Morningglory: 62 g/ha, 0 to 100 scale
Summary of the method: as §1

crabgrass = assay: as above; type: in vivo, Digitaria sanguinalis; settings: for Plant response rating, Crabgrass: 62 g/ha, 0 to 100 scale
Summary of the method: as §1

corn [5] = assay: as above; type: in vivo, Zea mays; settings: for Plant response rating, Corn: 62 g/ha, 0 to 100 scale
Summary of the method: as §1

morningglory [6] = assay: Test B preemergence/postemergence greenhouse plant response rating 0 to 10; type: in vivo, Ipomoea hederacea; settings: 0 to 10 scale
Summary of the method: as §2

wheat = assay: Test C preemergence/postemergence greenhouse plant response rating 0 to 100; type: in vivo, Triticum aestivum
Summary of the method: as §1

soybean = assay: Test B preemergence/postemergence greenhouse plant response rating 0 to 10; type: in vivo, Glycine max; settings: 0 to 10 scale
Summary of the method: as §2

[7] = POSTEMERGENCE, 62 g/ha, 0 to 100 scale

CC(C)Oc1cc(-c2nn3c(c2Br)CCCC3)c(F)cc1Cl [Compound 38]
90: Plant response rating, Velvetleaf (velvetleaf [1]; [7])
60: Plant response rating (0 to 100), Lambsquarters (lambsquarters; Rate 1 g/ha) | Plant response rating (0 to 100), Lambsquarters (lambsquarters; Rate 4 g/ha)
100: Plant response rating (0 to 100), Velvetleaf (velvetleaf [1]; Rate 16 g/ha, PREEMERGENCE)
0: Plant response rating (0 to 100), Velvetleaf (velvetleaf [1]; PREEMERGENCE, Rate 1 g/ha) | Plant response rating, Chickweed (chickweed; PREEMERGENCE, Rate 50 g/ha) | Plant response rating, Chickweed (chickweed; Rate 200 g/ha, PREEMERGENCE) | Plant response rating, Velvetleaf (velvetleaf [2]; PREEMERGENCE, Rate 50 g/ha) | Plant response rating, Corn (corn [3]; PREEMERGENCE, Rate 50 g/ha) | Plant response rating (0 to 100), Morningglory (morningglory [4]; PREEMERGENCE, Rate 1 g/ha) | Plant response rating (0 to 100), Morningglory (morningglory [4]; PREEMERGENCE, Rate 4 g/ha) | Plant response rating (0 to 100), Morningglory (morningglory [4]; Rate 16 g/ha, PREEMERGENCE) | Plant response rating (0 to 100), Crabgrass (crabgrass; PREEMERGENCE, Rate 1 g/ha) | Plant response rating (0 to 100), Crabgrass (crabgrass; PREEMERGENCE, Rate 4 g/ha) | Plant response rating, Corn (corn [5]; PREEMERGENCE) | Plant response rating (0 to 100), Corn (corn [5]; PREEMERGENCE, Rate 1 g/ha) | Plant response rating (0 to 100), Corn (corn [5]; PREEMERGENCE, Rate 4 g/ha) | Plant response rating (0 to 100), Corn (corn [5]; Rate 16 g/ha, PREEMERGENCE) | Plant response rating, Morningglory (morningglory [6]; PREEMERGENCE, Rate 50 g/ha) | Plant response rating (0 to 100), Wheat (wheat; POSTEMERGENCE, Rate 1 g/ha) | Plant response rating (0 to 100), Wheat (wheat; PREEMERGENCE, Rate 1 g/ha) | Plant response rating (0 to 100), Wheat (wheat; PREEMERGENCE, Rate 4 g/ha) | Plant response rating (0 to 100), Wheat (wheat; Rate 16 g/ha, PREEMERGENCE) | Plant response rating, Soybean (soybean; PREEMERGENCE, Rate 50 g/ha)
20: Plant response rating (0 to 100), Velvetleaf (velvetleaf [1]; PREEMERGENCE, Rate 4 g/ha) | Plant response rating (0 to 100), Morningglory (morningglory [4]; POSTEMERGENCE, Rate 1 g/ha) | Plant response rating, Morningglory (morningglory [4]; PREEMERGENCE) | Plant response rating (0 to 100), Crabgrass (crabgrass; POSTEMERGENCE, Rate 4 g/ha) | Plant response rating (0 to 100), Corn (corn [5]; Rate 4 g/ha, POSTEMERGENCE) | Plant response rating (0 to 100), Wheat (wheat; POSTEMERGENCE, Rate 4 g/ha)
8: Plant response rating, Sugar beet (sugar beet; PREEMERGENCE, Rate 50 g/ha) | Plant response rating, Morningglory (morningglory [6]; POSTEMERGENCE, Rate 50 g/ha)
80: Plant response rating (0 to 100), Velvetleaf (velvetleaf [1]; Rate 16 g/ha, POSTEMERGENCE)
7: Plant response rating, Velvetleaf (velvetleaf [2]; Rate 200 g/ha, PREEMERGENCE) | Plant response rating, Soybean (soybean; Rate 200 g/ha, POSTEMERGENCE)
6: Plant response rating, Velvetleaf (velvetleaf [2]; POSTEMERGENCE, Rate 50 g/ha)
5: Plant response rating, Corn (corn [3]; POSTEMERGENCE, Rate 200 g/ha) | Plant response rating, Soybean (soybean; POSTEMERGENCE, Rate 50 g/ha)
2: Plant response rating, Corn (corn [3]; Rate 200 g/ha, PREEMERGENCE)
50: Plant response rating, Corn (corn [5]; POSTEMERGENCE) | Plant response rating, Wheat (wheat; [7])
95: Plant response rating, Morningglory (morningglory [4]; POSTEMERGENCE) | Plant response rating (0 to 100), Morningglory (morningglory [4]; Rate 16 g/ha, POSTEMERGENCE)
40: Plant response rating, Crabgrass (crabgrass; POSTEMERGENCE) | Plant response rating (0 to 100), Corn (corn [5]; Rate 16 g/ha, POSTEMERGENCE)
9: Plant response rating, Chickweed (chickweed; POSTEMERGENCE, Rate 50 g/ha) | Plant response rating, Morningglory (morningglory [6]; Rate 200 g/ha, POSTEMERGENCE)
30: Plant response rating (0 to 100), Morningglory (morningglory [4]; POSTEMERGENCE, Rate 4 g/ha) | Plant response rating, Crabgrass (crabgrass; PREEMERGENCE) | Plant response rating (0 to 100), Crabgrass (crabgrass; Rate 16 g/ha, POSTEMERGENCE) | Plant response rating (0 to 100), Wheat (wheat; Rate 16 g/ha, POSTEMERGENCE)
70: Plant response rating Lambsquarters (lambsquarters; 62 g/ha, 0 to 100 scale) | Plant response rating (0 to 100), Lambsquarters (lambsquarters; Rate 16 g/ha)
10: Plant response rating (0 to 100), Velvetleaf (velvetleaf [1]; POSTEMERGENCE, Rate 1 g/ha) | Plant response rating (0 to 100), Velvetleaf (velvetleaf [1]; POSTEMERGENCE, Rate 4 g/ha) | Plant response rating, Sugar beet (sugar beet; POSTEMERGENCE, Rate 50 g/ha) | Plant response rating, Sugar beet (sugar beet; Rate 200 g/ha, POSTEMERGENCE) | Plant response rating, Sugar beet (sugar beet; Rate 200 g/ha, PREEMERGENCE) | Plant response rating, Chickweed (chickweed; POSTEMERGENCE, Rate 200 g/ha) | Plant response rating, Velvetleaf (velvetleaf [2]; Rate 200 g/ha, POSTEMERGENCE) | Plant response rating (0 to 100), Crabgrass (crabgrass; POSTEMERGENCE, Rate 1 g/ha) | Plant response rating (0 to 100), Crabgrass (crabgrass; Rate 16 g/ha, PREEMERGENCE) | Plant response rating (0 to 100), Corn (corn [5]; POSTEMERGENCE, Rate 1 g/ha)
4: Plant response rating, Corn (corn [3]; POSTEMERGENCE, Rate 50 g/ha) | Plant response rating, Morningglory (morningglory [6]; Rate 200 g/ha, PREEMERGENCE) | Plant response rating, Soybean (soybean; Rate 200 g/ha, PREEMERGENCE)

Reference: patent publication US6358885B1, “Substituted phenylheterocyclic herbicides” (Mississippi State University, priority 1992, dated 2002)
